# According to PMC3425516 (PLoS ONE, 2012):
# Key:
# Assay in all cases: NCI-60 cell lines screening
# Format in all cases: cell-based, human
# [1] = system: A498; conditions: A498, Renal Cancer panel
# Protocol: (§1) The NCI-60 cancer cell lines screening was conducted by the NCI’s Developmental Therapeutics Program (DTP; http://www.dtp.nci.nih.gov/branches/btb/ivclsp.html).
# [2] = system: A549/ATCC; conditions: Non-Small Cell Lung Cancer panel
# Protocol: as §1
# [3] = system: ACHN; conditions: Renal Cancer panel
# Protocol: as §1
# [4] = system: BT-549; conditions: BT-549, Breast Cancer panel
# Protocol: as §1
# [5] = system: CAKI-1; conditions: CAKI-1, Renal Cancer panel
# Protocol: as §1
# [6] = system: COLO 205; conditions: COLO 205, Colon Cancer panel
# Protocol: as §1
# [7] = system: EKVX; conditions: Non-Small Cell Lung Cancer panel
# Protocol: as §1
# [8] = system: HCT-15; conditions: HCT-15, Colon Cancer panel
# Protocol: as §1
# [9] = system: IGROV1; conditions: IGROV1, Ovarian Cancer panel
# Protocol: as §1
# [10] = system: K-562; conditions: K-562, Leukemia panel
# Protocol: as §1
# [11] = system: LOX IMVE; conditions: Melanoma panel
# Protocol: as §1
# [12] = system: MALME-3M; conditions: Melanoma panel
# Protocol: as §1
# [13] = system: MCF-7; conditions: MCF-7, Breast Cancer panel
# Protocol: as §1
# [14] = system: NCI-H226; conditions: NCI-H226, Non-Small Cell Lung Cancer panel
# Protocol: as §1
# [15] = system: OVCAR-3; conditions: OVCAR-3, Ovarian Cancer panel
# Protocol: as §1
# [16] = system: OVCAR-5; conditions: OVCAR-5, Ovarian Cancer panel
# Protocol: as §1
# [17] = system: PC-3; conditions: PC-3, Prostate Cancer panel
# Protocol: as §1
# [18] = system: RPMI-8226; conditions: RPMI-8226, Leukemia panel
# Protocol: as §1
# [19] = system: SF-268; conditions: SF-268, CNS Cancer panel
# Protocol: as §1
# [20] = system: SF-539; conditions: SF-539, CNS Cancer panel
# Protocol: as §1
# [21] = system: SK-MEL-28; conditions: SK-MEL-28, Melanoma panel
# Protocol: as §1
# [22] = system: SK-MEL-2; conditions: SK-MEL-2, Melanoma panel
# Protocol: as §1
# [23] = system: SK-MEL-5; conditions: SK-MEL-5, Melanoma panel
# Protocol: as §1
# [24] = system: SK-OV-3; conditions: SK-OV-3, Ovarian Cancer panel
# Protocol: as §1
# [25] = system: SNB-19; conditions: SNB-19, CNS Cancer panel
# Protocol: as §1
# [26] = system: SNB-75; conditions: SNB-75, CNS Cancer panel
# Protocol: as §1
# [27] = system: T-47D; conditions: Breast Cancer panel
# Protocol: as §1
# [28] = system: U251; conditions: U251, CNS Cancer panel
# Protocol: as §1
# [29] = system: UACC-257; conditions: UACC-257, Melanoma panel
# Protocol: as §1
# [30] = Homo sapiens, read-out: LC50 (the source's name)
compound,measurement,setting,value
"O=C(C=Cc1ccc2c(c1)CCN2S(=O)(=O)c1ccccc1)NO [MPT0E028, 3-(1-benzenesulfonyl-2,3-dihydro-1H-indol-5-yl)-N-hydroxy-acrylamide]",TGI,[1],1130 nM
same,GI50,[1]; Homo sapiens,243 nM
same,CC50,[1]; [30],5130 nM
same,GI50,[2]; Homo sapiens,230 nM
same,CC50,[2]; [30],9030 nM
same,TGI,[2],1090 nM
same,GI50,[3]; Homo sapiens,167 nM
same,CC50,[3]; [30],4080 nM
same,TGI,[3],576 nM
same,TGI,[4],5840 nM
same,GI50,[4]; Homo sapiens,680 nM
same,CC50,[4]; [30],> 100000 nM
same,TGI,[5],959 nM
same,GI50,[5]; Homo sapiens,218 nM
same,CC50,[5]; [30],> 100000 nM
same,TGI,[6],264 nM
same,GI50,[6]; Homo sapiens,128 nM
same,CC50,[6]; [30],546 nM
same,GI50,[7]; Homo sapiens,534 nM
same,TGI,[7],>100000 nM
same,TGI,[8],13100 nM
same,GI50,[8]; Homo sapiens,430 nM
same,CC50,[8]; [30],90200 nM
same,GI50,"[9]; Homo sapiens, IGROV-1",183 nM
same,CC50,"[9]; Homo sapiens, IGROV-1, read-out: LC50 (the source's name)",2390 nM
same,TGI,[9],533 nM
same,GI50,"[10]; Homo sapiens, K562",115 nM
same,CC50,"[10]; Homo sapiens, K562, read-out: LC50 (the source's name)",> 100000 nM
same,TGI,[10],>100000 nM
same,GI50,[11]; Homo sapiens,222 nM
same,CC50,[11]; [30],2880 nM
same,TGI,[11],718 nM
same,GI50,[12]; Homo sapiens,37.5 nM
same,CC50,[12]; [30],> 100000 nM
same,TGI,[12],907 nM
same,GI50,"[13]; Homo sapiens, MCF7",230 nM
same,CC50,"[13]; Homo sapiens, MCF7, read-out: LC50 (the source's name)",62700 nM
same,TGI,[13],10500 nM
same,GI50,[14]; Homo sapiens,1240 nM
same,CC50,[14]; [30],19000 nM
same,TGI,[14],3880 nM
same,GI50,[15]; Homo sapiens,233 nM
same,CC50,[15]; [30],7300 nM
same,TGI,[15],933 nM
same,GI50,[16]; Homo sapiens,60.2 nM
same,CC50,[16]; [30],2580 nM
same,TGI,[16],316 nM
same,GI50,[17]; Homo sapiens,240 nM
same,CC50,[17]; [30],> 100000 nM
same,TGI,[17],21000 nM
same,GI50,[18]; Homo sapiens,81.1 nM
same,CC50,[18]; [30],> 100000 nM
same,TGI,[18],>100000 nM
same,GI50,[19]; Homo sapiens,464 nM
same,CC50,[19]; [30],70400 nM
same,TGI,[19],3400 nM
same,GI50,[20]; Homo sapiens,241 nM
same,CC50,[20]; [30],3390 nM
same,TGI,[20],1150 nM
same,GI50,[21]; Homo sapiens,406 nM
same,CC50,[21]; [30],> 100000 nM
same,TGI,[21],2740 nM
same,GI50,[22]; Homo sapiens,433 nM
same,CC50,[22]; [30],34900 nM
same,TGI,[22],3890 nM
same,GI50,[23]; Homo sapiens,136 nM
same,CC50,[23]; [30],705 nM
same,TGI,[23],310 nM
same,GI50,[24]; Homo sapiens,190 nM
same,CC50,[24]; [30],4260 nM
same,TGI,[24],601 nM
same,GI50,[25]; Homo sapiens,434 nM
same,CC50,[25]; [30],5650 nM
same,TGI,[25],1640 nM
same,GI50,[26]; Homo sapiens,59.1 nM
same,CC50,[26]; [30],32800 nM
same,TGI,[26],6270 nM
same,TGI,[27],445 nM
same,GI50,"[27]; Homo sapiens, T47D",121 nM
same,CC50,"[27]; Homo sapiens, T47D, read-out: LC50 (the source's name)",> 100000 nM
same,GI50,"[28]; Homo sapiens, U-251",199 nM
same,CC50,"[28]; Homo sapiens, U-251, read-out: LC50 (the source's name)",3760 nM
same,TGI,[28],820 nM
same,GI50,[29]; Homo sapiens,127 nM
same,CC50,[29]; [30],> 100000 nM
same,TGI,[29],1650 nM
